# Reference: publication PMC4076210, “Discovery of Novel AKT Inhibitors with Enhanced Anti-Tumor Effects in Combination with the MEK Inhibitor” (PLoS ONE, 2014)
# System: solid tumor cell lines
# Assay: 3-day proliferation assay (CellTiter-Glo)
# Format: cell-based, human
# Details: for IC50: Homo sapiens
# Procedure: Various tumor cell lines were obtained from different sources including; the American Type Cell Culture Collection, the Developmental Therapeutics Program, the National Cancer Institute, the German Resource Center for Biological Material and the European Collection of Animal Cell Cultures. Cell lines were typically grown in […] containing 10% FBS. Some cell lines were grown in media specified by the vendor. A 3-day proliferation assay using CellTiter-Glo (CTG, Promega) was performed to measure the growth inhibition by the compounds at 0–30 µM. Cell growth was determined relative to untreated (DMSO) controls. EC50's were calculated from inhibition curves using a 4- or 6-parameter fitting algorithm in the Assay Client application.
compound,measurement,setting,value
Cn1ncc(Cl)c1-c1cc(C(=O)N[C@H](CN)Cc2ccc(F)c(F)c2)oc1Cl [GSK2141795],solid tumor cell lines with EC50<1 µM,"178 cell lines, 3 days, CTG",36%
same,IC50,"22Rv1, 22Rv1, Prostate",244 nM
same,IC50,"647-V, 647V, Bladder",7560 nM
same,IC50,"786-0, 786-O, Kidney",577 nM
same,IC50,"A 172, A172, Brain",5700 nM
same,IC50,"A204, A204, Sarcoma",1060 nM
same,IC50,"A549, A549, Lung",1540 nM
same,IC50,"A673, A673, Sarcoma",3400 nM
same,IC50,"A2780, A2780, Ovary",2300 nM
same,IC50,"A-375, A375, Skin",13800 nM
same,IC50,"A-427, A427, Lung",1960 nM
same,IC50,"ACHN, Kidney",1480 nM
same,IC50,"AGS, Stomach",491 nM
same,IC50,"BE(2)-C, BE2C, Neuroblastoma",664 nM
same,IC50,"BFTC-905, BFTC905, Bladder",1380 nM
same,IC50,"BT-20, BT20, Breast",79 nM
same,IC50,"BXPC-3, BXPC3, Pancreas",17200 nM
same,IC50,"C3A, Liver",966 nM
same,IC50,"C32TG, Skin",537 nM
same,IC50,"C-33-A, C-33A, Cervix",238 nM
same,IC50,"C-41, Cervix",15500 nM
same,IC50,"CAL-27, CAL27, Head & Neck",6590 nM
same,IC50,"CAL-62, CAL62, Thyroid",8050 nM
same,IC50,"CCF-STTG1, CCFSTTG1, Brain",164 nM
same,IC50,"CGTH-W-1, CGTHW1, Thyroid",2100 nM
same,IC50,"CHL-1, CHL1, Skin",3040 nM
same,IC50,"CHP-212, CHP212, Neuroblastoma",595 nM
same,IC50,"COLO 205, COLO205, Colon",3680 nM
same,IC50,"COLO 320DM, COLO320DM, Colon",698 nM
same,IC50,"COLO 704, COLO704, Ovary",104 nM
same,IC50,"COR-L23, CORL23, Lung",5510 nM
same,IC50,"Calu-3, CALU3, Lung",850 nM
same,IC50,"Calu-6, CALU6, Lung",3720 nM
same,IC50,"Caov-3, CAOV3, Ovary",4230 nM
same,IC50,"Capan-2, Capan2, Pancreas",4230 nM
same,IC50,"DBTRG-05MG, DBTRG05MG, Brain",3690 nM
same,IC50,"DKMG, Brain",946 nM
same,IC50,"DLD-1, DLD1, Colon",5920 nM
same,IC50,"DU-145, DU145, Prostate",3460 nM
same,IC50,"DU-4475, DU4475, Breast",1760 nM
same,IC50,"DoTc2-4510, DoTc24510, Cervix",1380 nM
same,IC50,"EFM-19, EFM19, Breast",49 nM
same,IC50,"EKVX, Lung",3910 nM
same,IC50,"ES2, Ovary",1750 nM
same,IC50,"FaDu, Head & Neck",9180 nM
same,IC50,"G-401, G401, Head & Neck",473 nM
same,IC50,"GCT, Sarcoma",3200 nM
same,IC50,"H4, Brain",1630 nM
same,IC50,"HCC70, HCC70, Breast",38 nM
same,IC50,"HCC1954, HCC1954, Breast",117 nM
same,IC50,"HCC 2998, HCC2998, Colon",1400 nM
same,IC50,"HCT-116, HCT116, Colon",3990 nM
same,IC50,"HMCB, Skin",2820 nM
same,IC50,"HN5, Head & Neck",1990 nM
same,IC50,"HOS, Sarcoma",1180 nM
same,IC50,"HPAF-II, HPAFII, Pancreas",4330 nM
same,IC50,"HT3, Cervix",1450 nM
same,IC50,"HT-29, HT29, Colon",1040 nM
same,IC50,"HT-1080, HT1080, Sarcoma",3460 nM
same,IC50,"HUVEC, Normal Endothelial",3180 nM
same,IC50,"HeLa, Cervix",5720 nM
same,IC50,"Hep3B, Liver",154 nM
same,IC50,"Hs746T, Stomach",1090 nM
same,IC50,"IGROV-1, IGROV1, Ovary",21 nM
same,IC50,"J82, Bladder",783 nM
same,IC50,"KATO III, KATOIII, Stomach",255 nM
same,IC50,"KHOS-240S, KHOS240S, Sarcoma",7400 nM
same,IC50,"KM12, KM12, Colon",3270 nM
same,IC50,"KPL-1, KPL1, Breast",1390 nM
same,IC50,"KYSE-30, KYSE30, Oesophagus",3210 nM
same,IC50,"LNCaP, Prostate",57 nM
same,IC50,"LS174T, Colon",1360 nM
same,IC50,"LS-1034, LS1034, Colon",1640 nM
same,IC50,"M14, Skin",1880 nM
same,IC50,"MC-IXC, MCIXC, Neuroblastoma",282 nM
same,IC50,"MCF7, MCF7, Breast",139 nM
same,IC50,"MCF-10A, MCF10A, Normal Breast",528 nM
same,IC50,"MDA-MB-175-VII, MDAMB175-VII, Breast",86 nM
same,IC50,"MDA-MB-231, MDAMB231, Breast",7620 nM
same,IC50,"MDA-MB-453, MDAMB453, Breast",474 nM
same,IC50,"MDA-MB-468, MDAMB468, Breast",369 nM
same,IC50,"MES-SA, MESSA, Sarcoma",342 nM
same,IC50,"MIA PaCa-2, MiaPaCa, Pancreas",871 nM
same,IC50,"NCI-H69, NCIH69, Lung",648 nM
same,IC50,"NCI-H82, NCIH82, Lung",15100 nM
same,IC50,"NCI-H146, NCIH146, Lung",7770 nM
same,IC50,"NCI-H157, NCIH157, Lung",1340 nM
same,IC50,"NCI-H187, NCIH187, Lung",115 nM
same,IC50,"NCI-H209, NCI-H209, Lung",853 nM
